Measured values reported in patent US11466007B2, “Substituted lactams showing serotonin 5-HT receptor activity” (Sumitomo Pharma Co., Ltd., priority 2018, dated 2022).

How the values were obtained:
[1] = molecular target: human D2 receptor (Homo sapiens (Human), UniProt P14416); assay: Test 1: binding activity for human D2 receptor ([3H]Spiperone); details: ratio of D2 Ki to 5-HT2A Ki
Description: Test 1: Evaluation of Binding Activity for Human 5-HT1A Receptor, Human 5-HT2A Receptor, and Human D2 Receptor
Binding affinity of the present compound for human 5-HT1A receptor, human 5-HT2A receptor, and human D2 receptor was measured by the following procedures.
Each mixture was incubated at room temperature for 60 minutes. Then, the mixture was added quickly on a glassfiber filter plate (Multiscreen FB, Millipore, Inc.) coated with 0.3% aqueous polyethylenimine, and vacuum-filtered. Radioactivity remaining on the filter was measured with a liquid scintillation counter (PerkinElmer, Inc.). Binding inhibition rate was calculated from the following formula.
Ki of each compound was calculated from the following formula. Binding inhibition constant (Ki)=IC50/(1+S/Kd) wherein S is concentration of ligand; Kd is a binding dissociation constant of ligand to membrane, which is calculated from a saturated binding experiment conducted with the same cell membrane. A small Ki value means strong binding ability to a receptor.

[2] = Test 4: metabolic stability test in human hepatic microsome; assay type: in vitro ADME; details: 0.1 mg/mL microsome, 0.1 μmol/L compound, NADPH, 37° C., 30 minutes
Description: Test 4: Metabolic Stability Test in Human Hepatic Microsome
The stability of the present compound in human hepatic microsome metabolism was evaluated as mentioned below. Human hepatic microsome was obtained from Xenontech. Human hepatic microsome, NADPH, and each test compound were mixed in 25 mmol/L phosphate buffer solution (pH 7.4) to reach the following concentrations as shown below, and the mixture was incubated at 37° C. for 30 minutes. • Human hepatic microsome: 0.1 mg/mL • NAPDH: 3.2 mmol/L • Test compound: 0.1 μmol/L
The residual ratio of the test compound in each sample after 30 minutes was measured by LC-MS, and the metabolic stability in human hepatic microsome was calculated from the following formula. Metabolic stability in human hepatic microsome (mL/min/mg protein)=−LN(residual ratio)/30/0.1

Sequence of human D2 receptor (P14416 whole entry): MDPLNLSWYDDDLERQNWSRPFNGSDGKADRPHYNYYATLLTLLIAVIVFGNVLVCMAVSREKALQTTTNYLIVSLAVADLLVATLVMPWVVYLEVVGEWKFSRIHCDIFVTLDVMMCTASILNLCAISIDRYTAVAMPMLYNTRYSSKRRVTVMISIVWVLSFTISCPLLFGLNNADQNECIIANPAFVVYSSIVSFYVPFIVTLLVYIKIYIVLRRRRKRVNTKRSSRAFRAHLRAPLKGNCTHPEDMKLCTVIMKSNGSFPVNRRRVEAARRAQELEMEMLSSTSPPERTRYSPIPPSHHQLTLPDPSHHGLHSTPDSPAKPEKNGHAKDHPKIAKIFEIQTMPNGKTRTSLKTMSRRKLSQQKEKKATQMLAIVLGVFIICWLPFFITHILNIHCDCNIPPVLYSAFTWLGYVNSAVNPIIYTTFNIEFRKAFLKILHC

SMILES: COc1ccc2onc(C3CCN(CCN4CCc5cccnc5C4=O)CC3)c2c1 [Example 142]
- D2 Ki/5-HT2A Ki [1]: >61.0

SMILES: Cc1ncc2c(=O)n(CCN3CCC(c4noc5ccccc45)CC3)ccc2n1 [Example 194, 6-{2-[4-(1,2-Benzoisoxazol-3-yl)piperidin-1-yl]ethyl}-2-methylpyrido[4,3-d]pyrimidin-5(6H)-one]
- Metabolic stability in human hepatic microsome [2]: <0.05 mL/min/mg protein

SMILES: O=C1c2ncccc2CCN1CCN1CCN(c2nsc3cc(F)ccc23)CC1 [Example 27]
- Metabolic stability in human hepatic microsome [2]: 0.048 mL/min/mg protein

SMILES: Cc1cc2c(n1C)CCCN(CCN1CCC(c3noc4ccccc34)CC1)C2=O [Example 166]
- Metabolic stability in human hepatic microsome [2]: <0.05 mL/min/mg protein

SMILES: O=C1c2nc[nH]c2CCN1CCN1CCC(c2noc3ccccc23)CC1 [Example 191, 5-{2-[4-(1,2-Benzoisoxazol-3-yl)piperidin-1-yl]ethyl}-6,7-dihydro[1,3]imidazolo[4,5-c]pyridin-4(5H)-one]
- Metabolic stability in human hepatic microsome [2]: <0.05 mL/min/mg protein

SMILES: Cc1nc2c(o1)CCN(CCN1CCN(c3nsc4ccccc34)CC1)C2=O [Example 51]
- Metabolic stability in human hepatic microsome [2]: 0.074 mL/min/mg protein

SMILES: Cc1nn(C)c2c1C(=O)N(CCN1CCN(c3noc4ccccc34)CC1)CCC2 [Example 92]
- Metabolic stability in human hepatic microsome [2]: 0.065 mL/min/mg protein

SMILES: CC(C)c1nc2c(o1)C(=O)N(CCN1CCC(c3noc4ccccc34)CC1)CC2 [Example 164]
- Metabolic stability in human hepatic microsome [2]: 0.097 mL/min/mg protein

SMILES: Cn1cc2c(n1)C(=O)N(CCN1CCC(c3noc4ccccc34)CC1)CC2 [Example 156]
- Metabolic stability in human hepatic microsome [2]: <0.05 mL/min/mg protein

SMILES: O=C1c2cn(C3CC3)nc2CCN1CCN1CCC(c2noc3ccccc23)CC1 [Example 76]
- Metabolic stability in human hepatic microsome [2]: 0.018 mL/min/mg protein

SMILES: Cn1ccc2c1CCN(CCN1CCN(c3noc4ccccc34)CC1)C2=O [Example 170]
- Metabolic stability in human hepatic microsome [2]: <0.05 mL/min/mg protein

SMILES: O=C1c2ncoc2CCN1CCN1CCC(c2noc3ccccc23)CC1 [Example 190, 5-{2-[4-(1,2-Benzoisoxazol-3-yl)piperidin-1-yl]ethyl}-6,7-dihydro[1,3]oxazolo[4,5-c]pyridin-4(5H)-one]
- Metabolic stability in human hepatic microsome [2]: <0.05 mL/min/mg protein

SMILES: Cc1c2c(nn1C)CCN(CCN1CCN(c3noc4ccccc34)CC1)C2=O [Example 171]
- Metabolic stability in human hepatic microsome [2]: <0.05 mL/min/mg protein

SMILES: Cc1cc2c(C3CCN(CCN4CCc5cccnc5C4=O)CC3)noc2cc1F [Example 6]
- Metabolic stability in human hepatic microsome [2]: 0.061 mL/min/mg protein

SMILES: Cc1nc2c(o1)C(=O)N(CCN1CCC(c3noc4ccccc34)CC1)CCC2 [Example 154]
- Metabolic stability in human hepatic microsome [2]: <0.05 mL/min/mg protein

SMILES: Cc1nc2c(o1)CCCN(CCN1CCN(c3nsc4ccccc34)CC1)C2=O [Example 52]
- Metabolic stability in human hepatic microsome [2]: 0.043 mL/min/mg protein

SMILES: Cn1cc2c(n1)C(=O)N(CCN1CCC(c3noc4ccccc34)CC1)CCC2 [Example 48]
- Metabolic stability in human hepatic microsome [2]: <0.01 mL/min/mg protein

SMILES: O=C1c2[nH]ncc2CCN1CCN1CCC(c2noc3ccccc23)CC1 [Example 98, 6-{2-[4-(1,2-Benzoisoxazol-3-yl)piperidin-1-yl]ethyl}-1,4,5,6-tetrahydro-7H-pyrazolo[3,4-c]pyridin-7-one]
- Metabolic stability in human hepatic microsome [2]: 0.013 mL/min/mg protein

SMILES: Cn1ccc2c1CCCN(CCN1CCC(c3noc4ccccc34)CC1)C2=O [Example 103, 5-{2-[4-(1,2-Benzoisoxazol-3-yl)piperidin-1-yl]ethyl}-1-methyl-5,6,7,8-tetrahydropyrrolo[3,2-c]azepin-4(1H)-one]
- Metabolic stability in human hepatic microsome [2]: <0.01 mL/min/mg protein

SMILES: COc1cc2c(cn1)C(=O)N(CCN1CCN(c3nsc4ccccc34)CC1)CC2 [Example 2, 2-{2-[4-(1,2-Benzoisothiazol-3-yl)piperazin-1-yl]ethyl}-6-methoxy-3,4-dihydro-2,7-naphthyridin-1(2H)-one]
- Metabolic stability in human hepatic microsome [2]: 0.22 mL/min/mg protein

SMILES: Cc1cncc2c1CCN(CCN1CCC(c3noc4ccccc34)CC1)C2=O [Example 138]
- Metabolic stability in human hepatic microsome [2]: 0.083 mL/min/mg protein

SMILES: Cc1nc(C)c2c(n1)CCN(CCN1CCC(c3noc4ccccc34)CC1)C2=O [Example 139]
- Metabolic stability in human hepatic microsome [2]: <0.05 mL/min/mg protein

SMILES: Cn1ncc2c1CCC(CCN1CCC(c3noc4ccccc34)CC1)C2=O (stereo not shown) [Example 28]
- Metabolic stability in human hepatic microsome [2]: 0.017 mL/min/mg protein

SMILES: O=C1c2cnn(C3CC3)c2CCN1CCN1CCN(c2nsc3ccccc23)CC1 [Example 160]
- Metabolic stability in human hepatic microsome [2]: 0.13 mL/min/mg protein

SMILES: Cn1ccc2c1CCCN(CCN1CCN(c3noc4ccccc34)CC1)C2=O [Example 109, 5-{2-[4-(1,2-Benzoisoxazol-3-yl)piperazin-1-yl]ethyl}-1-methyl-5,6,7,8-tetrahydropyrrolo[3,2-c]azepin-4 (H)-one]
- Metabolic stability in human hepatic microsome [2]: <0.01 mL/min/mg protein

SMILES: Cn1cc2c(n1)CCN(CCN1CCN(c3noc4ccccc34)CC1)C2=O [Example 81]
- Metabolic stability in human hepatic microsome [2]: <0.01 mL/min/mg protein

SMILES: O=C1c2cn[nH]c2CCN1CCN1CCC(c2noc3ccccc23)CC1 [Example 189, 5-{2-[4-(1,2-Benzoisoxazol-3-yl)piperidin-1-yl]ethyl}-1,5,6,7-tetrahydro-4H-pyrazolo[4,3-c]pyridin-4-one]
- Metabolic stability in human hepatic microsome [2]: <0.05 mL/min/mg protein

SMILES: COc1ncc2c(n1)CCN(CCN1CCC(c3noc4ccccc34)CC1)C2=O [Example 176]
- Metabolic stability in human hepatic microsome [2]: <0.05 mL/min/mg protein

SMILES: Cn1cnc2c1CCN(CCN1CCC(c3noc4ccccc34)CC1)C2=O [Example 16]
- Metabolic stability in human hepatic microsome [2]: <0.01 mL/min/mg protein

SMILES: Cn1cc2c(n1)C(=O)N(CCN1CCN(c3nsc4ccccc34)CC1)CCC2 [Example 49]
- Metabolic stability in human hepatic microsome [2]: 0.063 mL/min/mg protein

SMILES: Cc1nc2c(o1)CCN(CCN1CCC(c3noc4ccccc34)CC1)C2=O [Example 39]
- Metabolic stability in human hepatic microsome [2]: 0.016 mL/min/mg protein

SMILES: Cc1noc2c1C(=O)N(CCN1CCN(c3noc4ccccc34)CC1)CC2 [Example 32, 5-{2-[4-(1,2-Benzoisoxazol-3-yl)piperazin-1-yl]ethyl}-3-methyl-6,7-dihydro[1,2]oxazolo[4,5-c]pyridin-4(5H)-one]
- Metabolic stability in human hepatic microsome [2]: <0.01 mL/min/mg protein

SMILES: Cc1ccc2onc(C3CCN(CCN4CCc5cccnc5C4=O)CC3)c2c1 [Example 89]
- Metabolic stability in human hepatic microsome [2]: 0.050 mL/min/mg protein

SMILES: [2H]C([2H])([2H])Oc1cc2c(cn1)C(=O)N(CCN1CCN(c3nsc4ccccc34)CC1)CC2([2H])[2H] [Example 107, 2-{2-[4-(1,2-Benzoisothiazol-3-yl)piperazin-1-yl]ethyl}-6-[(^2H3)methyloxy](4,4-^2H2)-3,4-dihydro-2,7-naphthyridin-1(2H)-one]
- Metabolic stability in human hepatic microsome [2]: 0.210 mL/min/mg protein

SMILES: Cn1cnc2c1C(=O)N(CCN1CCC(c3noc4ccccc34)CC1)CC2 [Example 133]
- Metabolic stability in human hepatic microsome [2]: <0.05 mL/min/mg protein

SMILES: O=C1c2cccnc2CCN1CCN1CCC(c2noc3ccccc23)CC1 [Example 128]
- Metabolic stability in human hepatic microsome [2]: <0.05 mL/min/mg protein

SMILES: O=C1c2cccnc2CCN1CCN1CCN(c2nsc3ccccc23)CC1 [Example 9]
- Metabolic stability in human hepatic microsome [2]: 0.100 mL/min/mg protein

SMILES: Cc1ncc2c(n1)CCN(CCN1CCN(c3nsc4ccccc34)CC1)C2=O [Example 90]
- Metabolic stability in human hepatic microsome [2]: 0.070 mL/min/mg protein

SMILES: O=C1c2cccnc2CCN1CCN1CCN(c2noc3ccccc23)CC1 [Example 153, 6-{2-[4-(1,2-Benzoisoxazol-3-yl)piperazin-1-yl]ethyl}-7,8-dihydro-1,6-naphthyridin-5(6H)-one]
- Metabolic stability in human hepatic microsome [2]: <0.05 mL/min/mg protein

SMILES: Cc1nn(C)c2c1C(=O)N(CCN1CCC(c3noc4ccccc34)CC1)CCC2 [Example 91]
- Metabolic stability in human hepatic microsome [2]: <0.05 mL/min/mg protein

SMILES: Cc1noc2c1C(=O)N(CCN1CCC(c3noc4ccccc34)CC1)CC2 [Example 33]
- Metabolic stability in human hepatic microsome [2]: 0.074 mL/min/mg protein

SMILES: O=C1c2nc(F)ccc2CCN1CCN1CCC(c2noc3ccccc23)CC1 [Example 188, 7-{2-[4-(1,2-Benzoisoxazol-3-yl)piperidin-1-yl]ethyl}-2-fluoro-6,7-dihydro-1,7-naphthyridin-8(5H)-one]
- Metabolic stability in human hepatic microsome [2]: <0.05 mL/min/mg protein

SMILES: O=c1c2cccnc2ccn1CCN1CCN(c2noc3ccccc23)CC1 [Example 115]
- Metabolic stability in human hepatic microsome [2]: <0.05 mL/min/mg protein
